# Data published in patent US20260191968A1, “PROTAC DEGRADERS OF MLLT1 AND/OR MLLT3” (DARK BLUE THERAPEUTICS LTD, priority 2024, published 2026).
# Key:
# MLLT1 = molecular target: T1, MLLT1 (Homo sapiens, UniProt Q03111); test: MLLT1 degradation assay in MV4-11 cells (JESS chemiluminescent detection), three concentrations, 24 h; assay type: cell-based; conditions: with respect to DMSO control
# T1 construct: host or cells: MV4-11
# T1 sequence (Q03111 1-559): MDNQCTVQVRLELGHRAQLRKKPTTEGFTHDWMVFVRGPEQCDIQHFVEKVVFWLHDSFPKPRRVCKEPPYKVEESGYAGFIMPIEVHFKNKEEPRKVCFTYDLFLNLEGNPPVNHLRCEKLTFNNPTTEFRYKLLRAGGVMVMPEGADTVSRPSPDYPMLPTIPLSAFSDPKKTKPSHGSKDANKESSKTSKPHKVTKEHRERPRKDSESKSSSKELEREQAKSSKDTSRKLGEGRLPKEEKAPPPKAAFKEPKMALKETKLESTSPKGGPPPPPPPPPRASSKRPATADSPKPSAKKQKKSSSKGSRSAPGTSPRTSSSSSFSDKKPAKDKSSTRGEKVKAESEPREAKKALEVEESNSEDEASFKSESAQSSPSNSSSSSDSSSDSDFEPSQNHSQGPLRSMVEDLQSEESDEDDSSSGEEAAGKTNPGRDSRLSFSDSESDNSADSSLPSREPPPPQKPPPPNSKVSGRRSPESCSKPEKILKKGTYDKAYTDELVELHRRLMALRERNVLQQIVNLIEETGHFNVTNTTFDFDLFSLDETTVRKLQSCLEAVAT
# Summary of the method: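 Read-out is % MLLT1 degradation versus DMSO, from band peak areas on a JESS chemiluminescent system. Cells (MV4-11) were exposed for 24 h at 37° C to three compound levels, 10, 100 and 1000 nM, in 0.1% DMSO.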
# MV4-11 cells = test: MV4-11 cellular proliferative assay, Assay Format B (CTG 2.0, 168 h); assay type: cell-based; conditions: Homo sapiens, 168 h (7 days), CTG 2.0, read-out: IC50 (MV4-11 cellular proliferative assay, Assay format B)
# Summary of the method: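 Viability read by CellTiter-Glo 2.0 luminescence after 7-day (168 h) compound exposure of MV4-11 cells in IMDM/10% FBS. Ten 3-fold concentrations starting at 1 uM or 100 nM, 0.3% final DMSO; curves normalised to DMSO control, four-parameter fit.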
SMILES,MLLT1% Degradation @ 0.01 μM (MLLT1),MLLT1% Degradation @ 0.1 μM (MLLT1),MLLT1% Degradation @ 1 μM (MLLT1),IC50 (MV4-11 cells) [nM]
"CN1CCC[C@@H]1c1cc2cnc(NC(=O)c3ccc(OCCc4ccc(-c5cccc6c5CN(C5CCC(=O)NC5=O)C6=O)cc4)cc3F)cc2[nH]1 (stereo partly drawn) [Example 207, 4-(4-(2-(2,6-dioxopiperidin-3-yl)-1-oxoisoindolin-4-yl)phenethoxy)-2-fluoro-N-(2-((R)-1-methylpyrrolidin-2-yl)-1H-pyrrolo[3,2-c]pyridin-6-yl)benzamide]",A (Category A: A ≥ 75% degradation),A (Category A: A ≥ 75% degradation),A (Category A: A ≥ 75% degradation),≤ 100
"CN1CCC[C@@H]1c1cc2cnc(NC(=O)c3ccc(CCCC#Cc4cccc5c4CN(C4CCC(=O)NC4=O)C5=O)cc3F)cc2[nH]1 (stereo partly drawn) [Example 94, 4-(5-(2-(2,6-dioxopiperidin-3-yl)-1-oxoisoindolin-4-yl)pent-4-yn-1-yl)-2-fluoro-N-(2-((R)-1-methylpyrrolidin-2-yl)-1H-pyrrolo[3,2-c]pyridin-6-yl)benzamide]",A (Category A: A ≥ 75% degradation),A (Category A: A ≥ 75% degradation),A (Category A: A ≥ 75% degradation),≤ 100
"CN1CCC[C@@H]1c1cc2cnc(NC(=O)c3ccc(OCCC4CCN(c5cccc6c5CN(C5CCC(=O)NC5=O)C6=O)CC4)cn3)cc2[nH]1 (stereo partly drawn) [Example 216, 5-(2-(1-(2-(2,6-dioxopiperidin-3-yl)-1-oxoisoindolin-4-yl)piperidin-4-yl)ethoxy)-N-(2-((R)-1-methylpyrrolidin-2-yl)-1H-pyrrolo[3,2-c]pyridin-6-yl)picolinamide]",A (Category A: A ≥ 75% degradation),A (Category A: A ≥ 75% degradation),A (Category A: A ≥ 75% degradation),≤ 100
"CN1CCC[C@@H]1c1cc2cnc(NC(=O)c3ccc(CCC4CCN(c5cccc6c5CN(C5CCC(=O)NC5=O)C6=O)CC4)cc3)cc2[nH]1 (stereo partly drawn) [Example 177, 4-(2-(1-(2-(2,6-dioxopiperidin-3-yl)-1-oxoisoindolin-4-yl)piperidin-4-yl)ethyl)-N-(2-((R)-1-methylpyrrolidin-2-yl)-1H-pyrrolo[3,2-c]pyridin-6-yl)benzamide]",A (Category A: A ≥ 75% degradation),A (Category A: A ≥ 75% degradation),A (Category A: A ≥ 75% degradation),≤ 100
"CN1CCC[C@@H]1c1cc2cnc(NC(=O)c3ccc(N4CCC(OCc5ccc(-c6cccc7c6CN(C6CCC(=O)NC6=O)C7=O)cc5)CC4)nc3)cc2[nH]1 (stereo partly drawn) [Example 109, 6-(4-((4-(2-(2,6-dioxopiperidin-3-yl)-1-oxoisoindolin-4-yl)benzyl)oxy)piperidin-1-yl)-N-(2-((R)-1-methylpyrrolidin-2-yl)-1H-pyrrolo[3,2-c]pyridin-6-yl)nicotinamide]",B (Category B: 50% ≤ B < 75% degradation),A (Category A: A ≥ 75% degradation),A (Category A: A ≥ 75% degradation),≤ 100
"CN1CCC[C@@H]1c1cc2cnc(NC(=O)c3ccc(CCCC#Cc4cccc5c4CN([C@H]4CCC(=O)NC4=O)C5=O)cc3)cc2[nH]1 (relative stereo) [Example 102, 4-(5-(2-((rel-S)-2,6-dioxopiperidin-3-yl)-1-oxoisoindolin-4-yl)pent-4-yn-1-yl)-N-(2-((R)-1-methylpyrrolidin-2-yl)-1H-pyrrolo[3,2-c]pyridin-6-yl)benzamide]",A (Category A: A ≥ 75% degradation),A (Category A: A ≥ 75% degradation),A (Category A: A ≥ 75% degradation),≤ 100
"CN1CCC[C@@H]1c1cc2cnc(NC(=O)c3ccc(N4CCN(CC5CCN(c6cccc7c6CN(C6CCC(=O)NC6=O)C7=O)CC5)CC4)nc3)cc2[nH]1 (stereo partly drawn) [Example 169, 6-(4-((1-(2-(2,6-dioxopiperidin-3-yl)-1-oxoisoindolin-4-yl)piperidin-4-yl)methyl)piperazin-1-yl)-N-(2-((R)-1-methylpyrrolidin-2-yl)-1H-pyrrolo[3,2-c]pyridin-6-yl)nicotinamide]",B (Category B: 50% ≤ B < 75% degradation),A (Category A: A ≥ 75% degradation),A (Category A: A ≥ 75% degradation),≤ 100
"CN1CCC[C@@H]1c1cc2cnc(NC(=O)c3ccc(N4CCC(CCN5CCN(c6cccc7c6CN(C6CCC(=O)NC6=O)C7=O)CC5)CC4)nc3)cc2[nH]1 (stereo partly drawn) [Example 138, 6-(4-(2-(4-(2-(2,6-dioxopiperidin-3-yl)-1-oxoisoindolin-4-yl)piperazin-1-yl)ethyl)piperidin-1-yl)-N-(2-((R)-1-methylpyrrolidin-2-yl)-1H-pyrrolo[3,2-c]pyridin-6-yl)nicotinamide]",A (Category A: A ≥ 75% degradation),A (Category A: A ≥ 75% degradation),A (Category A: A ≥ 75% degradation),≤ 100
"CN1CCC[C@@H]1c1cc2cnc(NC(=O)c3ccc(CCCC4CCN(c5cccc6c5CN(C5CCC(=O)NC5=O)C6=O)CC4)cc3)cc2[nH]1 (mixture of isomers) [Example 76, 4-(3-(1-(2-(2,6-dioxopiperidin-3-yl)-1-oxoisoindolin-4-yl)piperidin-4-yl)propyl)-N-(2-((R)-1-methylpyrrolidin-2-yl)-1H-pyrrolo[3,2-c]pyridin-6-yl)benzamide]",A (Category A: A ≥ 75% degradation),A (Category A: A ≥ 75% degradation),A (Category A: A ≥ 75% degradation),≤ 100
"CN1CCC[C@@H]1c1cc2cnc(NC(=O)c3cnc(N4CCC(C#Cc5cccc6c5CN(C5CCC(=O)NC5=O)C6=O)CC4)cn3)cc2[nH]1 (stereo partly drawn) [Example 186, 5-(4-((2-(2,6-dioxopiperidin-3-yl)-1-oxoisoindolin-4-yl)ethynyl)piperidin-1-yl)-N-(2-((R)-1-methylpyrrolidin-2-yl)-1H-pyrrolo[3,2-c]pyridin-6-yl)pyrazine-2-carboxamide]",B (Category B: 50% ≤ B < 75% degradation),A (Category A: A ≥ 75% degradation),B (Category B: 50% ≤ B < 75% degradation),≤ 100
"C[C@@H]1CN(CC2CCN(c3cccc4c3CN(C3CCC(=O)NC3=O)C4=O)CC2)CCN1c1ccc(C(=O)Nc2cc3[nH]c([C@H]4CCCN4C)cc3cn2)cc1 (mixture of isomers) [Example 133, 4-((2R)-4-((1-(2-(2,6-dioxopiperidin-3-yl)-1-oxoisoindolin-4-yl)piperidin-4-yl)methyl)-2-methylpiperazin-1-yl)-N-(2-((R)-1-methylpyrrolidin-2-yl)-1H-pyrrolo[3,2-c]pyridin-6-yl)benzamide]",A (Category A: A ≥ 75% degradation),A (Category A: A ≥ 75% degradation),A (Category A: A ≥ 75% degradation),≤ 100
"CN1CCC[C@@H]1c1cc2cnc(NC(=O)c3ccc(CCCc4ccc(-c5cccc6c5CN(C5CCC(=O)NC5=O)C6=O)cc4)cc3)cc2[nH]1 (stereo partly drawn) [Example 199, 4-(3-(4-(2-(2,6-dioxopiperidin-3-yl)-1-oxoisoindolin-4-yl)phenyl)propyl)-N-(2-((R)-1-methylpyrrolidin-2-yl)-1H-pyrrolo[3,2-c]pyridin-6-yl)benzamide]",A (Category A: A ≥ 75% degradation),A (Category A: A ≥ 75% degradation),A (Category A: A ≥ 75% degradation),≤ 100
"CN1CCC[C@@H]1c1cc2cnc(NC(=O)c3ccc(CCCC4CCN(c5cccc6c5CN([C@H]5CCC(=O)NC5=O)C6=O)CC4)cc3F)cc2[nH]1 (relative stereo) [Example 175, 4-(3-(1-(2-((rel-S)-2,6-dioxopiperidin-3-yl)-1-oxoisoindolin-4-yl)piperidin-4-yl)propyl)-2-fluoro-N-(2-((R)-1-methylpyrrolidin-2-yl)-1H-pyrrolo[3,2-c]pyridin-6-yl)benzamide]",A (Category A: A ≥ 75% degradation),A (Category A: A ≥ 75% degradation),A (Category A: A ≥ 75% degradation),≤ 100
